Read-outs that look alike come from different tables or passages of the source.
How the values were obtained:
sigma-2 receptor [1] = target: T1, sigma-2 receptor (Rattus norvegicus, UniProt Q5U3Y7); design: other: known prior art compounds, published studies; details: cited from earlier work
T1 sequence (Q5U3Y7 1-176): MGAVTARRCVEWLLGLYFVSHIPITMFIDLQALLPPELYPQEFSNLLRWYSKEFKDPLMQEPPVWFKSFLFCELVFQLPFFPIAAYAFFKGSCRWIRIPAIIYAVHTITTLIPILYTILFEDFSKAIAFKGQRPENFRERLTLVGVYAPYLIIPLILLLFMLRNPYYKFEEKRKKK

[2] = system: Abeta oligomer-induced membrane trafficking deficits in primary hippocampal neurons; assay: Membrane trafficking/exocytosis (MTT) assay; type: cell-based, rat; details: for IC50: read-out: Membrane trafficking IC50
Experimental: The methods used to generate the results were as follows in the Membrane Trafficking/Exocytosis (MTT) assay.
Primary hippocampal neurons from E18 Sprague-Dawley rat embryos were plated at optimized concentrations in 384 well plates in NB media (Invitrogen). Neurons were maintained in cultures for 3 weeks, with twice weekly feeding of NB media with N2 supplement (Invitrogen).
A test compound was added to cells at concentrations ranging from 100 uM to 0.001 nM followed by addition of vehicle or Abeta oligomer preparations (3 μM total Abeta protein concentration), and incubated for 1 to 24 hr at 37° C. in 5% CO2. MTT reagent (3-(4,5-dimethylthizaol-2-yl)-2,5diphenyl tetrazolium bromide) (Roche Molecular Biochemicals) was reconstituted in phosphate buffered saline to 5 mg/mL. 10 μl, of MTT labeling reagent is added to each well and incubated at 37° C. for 1 h, then imaged. Exocytosis was assessed by automated microscopy and image processing to quantify the amount of endocytosed and exocytosed formazan.
Each assay plate was formatted so that compounds are tested with and without Abeta oligomer on each plate.

Sigma-1 receptors [3] = target: Sigma-1 receptors (Homo sapiens, UniProt Q99720); assay: Sigma-1 competitive radioligand binding, [3H](+)pentazocine, Jurkat cell membranes
Chain of Sigma-1 receptors (Homo sapiens, UniProt Q99720) (Q99720 whole entry): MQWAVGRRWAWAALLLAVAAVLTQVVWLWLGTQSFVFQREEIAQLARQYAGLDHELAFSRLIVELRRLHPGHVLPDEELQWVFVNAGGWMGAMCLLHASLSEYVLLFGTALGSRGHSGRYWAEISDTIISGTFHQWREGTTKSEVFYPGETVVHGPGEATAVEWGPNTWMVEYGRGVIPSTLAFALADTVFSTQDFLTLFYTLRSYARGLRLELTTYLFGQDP
Experimental: (§1) Reactions were terminated by rapid filtration through Whatman GF/C filters using a Brandel 12R cell harvester followed by two washes with ice-cold buffer. Radioactivity on the dried filter discs was measured using a liquid scintillation analyzer (Tri-Carb 2900TR; PerkinElmer Life and Analytical Sciences). The displacement curves were plotted and the Ki values of the test ligands for the receptor subtypes were determined using GraphPad Prism (GraphPad Software Inc., San Diego, Calif.). The percentage specific binding was determined by dividing the difference between total bound (disintegrations per minute) and nonspecific bound (disintegrations per minute) by the total bound (disintegrations per minute).

sigma-2 receptor [4] = target: T1, sigma-2 receptor; assay: Sigma-2 competitive radioligand binding, [3H]DTG with 300 nM (+)pentazocine, rat cerebral cortex membranes
Experimental: as §1

Sigma-1 receptors [5] = details: known prior art compounds; cited from earlier work
[6] = system: SKOV-3 human ovarian cancer cell line; assay: MTS tumor cell viability assay; type: cell-based
Experimental: The cytotoxicity of compounds shown below was determined using the CellTiter96 Aqueous One Solution Assay (Promega, Madison, Wis.). […] The plate was read at 490 nm in a Victor3 plate reader (PerkinElmer Life and Analytical Sciences, Shelton, Conn.). The EC^50 value, defined as the concentration of the sigma ligand required to inhibit cell viability by 50% relative to untreated cells, was determined from the dose response curve for each cell line.

Sigma-1 receptors [7] = target: T2, Sigma-1 receptors (UniProt Q60492); details: Table 11C; read-out: S1 binding Ki; cited from earlier work
T2 construct: other: known prior art compounds, published studies

[8] = Table 11C, read-out: S2 binding Ki
[9] = Table 11C, known prior art compounds, read-out: Inhibition Abeta oligomer-induced Membrane Trafficking EC50
[10] = scaffold drawing 245, R' varied, read-out: Membrane Trafficking EC50
[11] = Table 11D, read-out: Sigma-2 Receptor Ki
[12] = known prior art compounds, published studies, read-out: Sigma 2 Binding Ki
[13] = Rattus norvegicus, Hippocampal neuron, Table 11C, known prior art compounds, read-out: Inhibition Abeta oligomer-induced Membrane Trafficking EC50

For `C=CCN1CC[C@]2(C)c3cc(O)ccc3C[C@H]1[C@H]2C` [SKF 10,047], the Ki (sigma-2 receptor [1]; [8]) is given as > 10000 nM, the “Functional Neuronal Phenotype” value ([2]; Table 11C) is given as “Inactive” and the EC50 [2, 9] is given as > 30 µM.
For `COc1cc(CCC(C)NCCC(C)C)ccc1O` (stereo not drawn) [Entry 4], the EC50 [2, 10] was > 30 µM.
For `Cc1ccc([C@@H](C)CC(CC(C)(C)O)NCC(C)C)cc1` (stereo partly drawn) [Compound IXb], the Ki (Sigma-1 receptors [3]) was 190 nM, the “Max Inhibition of Abeta (%)” value [2] was 97% and the EC50 ([2]; Rattus norvegicus, Hippocampal neuron, dosed prior to Abeta oligomer addition, read-out: EC50 in inhibiting amyloid beta effect in Cell Measured by Membrane Trafficking Assay) was 6.9 µM. The Ki (sigma-2 receptor [4]) was 23 nM.
For `COc1cccc2c1CCCC2CCCN1CCN(C2CCCCC2)CC1` (stereo not drawn) [PB 28], the Ki (sigma-2 receptor [1]; [8]) is given as 0.8 nM, the Ki (sigma-2 receptor [1]; [11]) is given as 0.8 nM and the Ki (sigma-2 receptor [1]; [12]) is given as 0.8 nM. The “Max Inhibition of Abeta (%)” value [2] was 84%, the “Functional Neuronal Phenotype” value ([2]; Table 11C) was “Antagonist” and the EC50 [2, 9] was 1 µM. The “Functional Neuronal Phenotype” value ([2]; Table 11D) was “Antagonist” and the IC50 ([2]; Table 11D) was 1000 nM.
With `COc1cc(CCC(C)NCc2ccccc2)ccc1O` (stereo not drawn) [Entry 3] the EC50 [2, 10] was 20 µM.
For `CN(CCc1ccc(Cl)c(Cl)c1)CCN1CCCC1` [BD1008], the Ki (sigma-2 receptor [1]; [8]) is given as 8 nM, the Ki (sigma-2 receptor [1]; [11]) is given as 8 nM and the Ki (sigma-2 receptor [1]; [12]) is given as 8 nM. The “Functional Neuronal Phenotype” value ([2]; Table 11C) was “Antagonist”, the EC50 [2, 9] was 1.5 µM and the “Functional Neuronal Phenotype” value ([2]; Table 11D) was “Antagonist”. The IC50 ([2]; Table 11D) was 1500 nM and the “Sigma 1 (Type of Activity)” value (Sigma-1 receptors [5]) was “(antagonist)”.
In the case of `CN[C@H]1CC[C@@H](c2ccc(Cl)c(Cl)c2)c2ccccc21` [Sertraline], the “Sigma 1 (Type of Activity)” value (Sigma-1 receptors [5]) is given as “(antagonist)”.
In the case of `Cc1ccccc1NC(=N)Nc1ccccc1C` [DTG], the “Max Inhibition of Abeta (%)” value [2] is reported as 23%, the EC50 [2, 13] is reported as > 20 µM and the “Functional Neuronal Phenotype” value ([2]; Table 11C) is reported as “Inactive”. The “Sigma 1 (Type of Activity)” value (Sigma-1 receptors [5]) was “(agonist)”.
`COc1cc(CCC(C)NCc2ccc(C(F)(F)F)cc2)ccc1O` (single isomer, unassigned; (+)) [(+) enantiomer of Cpd II] gave an EC50 ([2]; read-out: EC 50 in screening assay using single concentration of Abeta oligomer) of 5.6 µM.
With `COc1cc(CCC(C)NCc2ccc(Cl)cc2)ccc1O` (stereo not drawn) [Entry 2] the EC50 [2, 10] was 12 µM.
For `C=CCN1CCC2(C)c3cc(O)ccc3CC1C2C` (stereo not drawn) [SFK10047], the Ki (sigma-2 receptor [1]; [12]) is given as 39700 nM and the “Sigma 1 (Type of Activity)” value (Sigma-1 receptors [5]) is given as “(agonist)”.
For `CC12CC3CC(C)(C1)CC(N)(C3)C2` [Memantine, memantine], the inhibition at 28 µM ([2]; Rattus norvegicus, Hippocampal neuron, 28 μM, read-out: Inhibition of oligomer effects) was 50%.
For `COc1ccc(C)cc1NC(=O)OC1CC2CCCC(C1)N2Cc1ccc(N(C)C)cc1` (stereo not drawn) [WC-26], the Ki (sigma-2 receptor [1]; read-out: S2 binding Ki, Table 11C) is listed as 3 nM, the “Nuclear morphology / nuclear intensity in neurons” value (neuronal cultures) is listed as “caused significant abnormal nuclear morphology” and the IC50 ([6]; Homo sapiens, SK-OV-3, tumor cell viability, 48 hrs) is listed as 65.6 ± 6.3 µM. For the same compound, the Action ([6]; by EC50 relative to siramesine) was “Partial agonist”, the EC50 [2, 13] was 1.6 µM and the “Functional Neuronal Phenotype” value ([2]; Table 11C) was “Agonist”. For the same compound, the Ki (Sigma-1 receptors [7]) was 1400 nM.

From US20140378460A1, “COMPOSITIONS AND METHODS FOR TREATING NEURODEGENERATIVE DISEASE” (COGNITION THERAPEUTICS, INC., priority 2011, published 2014)
